The subject of assay [1] is acute myelogenous leukemia cells (MV-4-11 cells). The assay is described as follows: Cytotoxicity to acute myelogenous leukemia cells (MV-4-11 cells), CCK-8. As to conditions: Homo sapiens, MV4-11, 72 h.
Assay [2] has as its target BRD4 (BD1+BD2) bromodomain (Homo sapiens (Human), UniProt O60885). Briefly: BRD4 binding inhibition (AlphaScreen, GST-BRD4 vs tetraacetylated histone H4 peptide). In outline: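 AlphaScreen read after 30 min dark incubation at room temperature with glutathione acceptor/streptavidin donor beads (10 μg/ml each). The beads were added to compound plus 100 nM biotin-H4 (K5,8,12,16-acetyl) peptide and 100 nM GST-BRD4 BD1+BD2 in pH 7.4 HEPES/Tween/BSA/DTT buffer.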
(Bead proximity is the source of the signal in Alpha formats.)

Setting [3] is: read-out: MV-4-11 Cytotoxicity IC50.
[4] abbreviates: GST-BRD4 (BD1+BD2) / biotinylated acetyl-histone H4 (Lys5,8,12,16) peptide, read-out: IC50, BRD4 binding inhibition.
Setting [5] is: GST-BRD4 (BD1+BD2) vs biotinylated acetyl-histone H4 peptide, AlphaScreen, read-out: BRD4 IC50.
[6] abbreviates: read-out: IC50, cytotoxicity against acute myelogenous leukemia cells.

Each structure is given as a SMILES string. Where two headings read alike, the source gives them in different places. Some results are limits rather than exact numbers.

What is called IC50 is the midpoint of a concentration-inhibition curve.

In the case of `CCC(C)CC(=O)NCCCCNc1nc2cc(OC)ccc2n2c(C(F)(F)F)nnc12` (stereo not drawn) [Example 591, 3-methyl-pentanoic acid-[4-(7-methoxy-1-trifluoromethyl-[1,2,4]triazolo[4,3-a]quinoxaline-4-ylamino)-butyl]-amide], the half-maximal inhibitory concentration (IC50) was 880 nM in assay [1] (setting [3]), ≤ 50 nM in assay [2] (setting [4]) and 28 nM in assay [2] (setting [5]).
`Cc1nnc2c(NCCCCNC(=O)CC(C)C)nc3cc(N4CCOCC4)ccc3n12` [Example 499, 3-methyl-N-[4-(1-methyl-7-morpholine-4-yl-[1,2,4]triazolo[4,3-a]quinoxaline-4-ylamino)-butyl]-butyramide]: the IC50 in assay [1] (setting [6]) is ≤ 200 nM; in assay [1] (setting [3]), 140 nM; in assay [2] (setting [4]) it was ≤ 10 nM; in assay [2] (setting [5]) it was 10 nM.
Taken in the same sequence, the figures for `Cc1nnc2c(NCCCCNC(=O)[C@@H](NC(=O)OC(C)C)C(C)C)nc3cc(N4C[C@@H](C)O[C@@H](C)C4)ccc3n12` [Example 520, (S)-(1-{4-[7-(2,6-dimethyl-morpholine-4-yl)-1-methyl-[1,2,4]triazolo[4,3-a]quinoxaline-4-ylamino]-butylcarbamoyl}-2-methyl-propyl)-carbamic acid isopropylester] were ≤ 200 nM, 174 nM, ≤ 50 nM and 24 nM.
For the compound `COc1ccc2c(nc(NCCCCNC(=O)Cc3cccs3)c3nnc(C)n32)c1Cl` [Example 463, N-[4-(6-chloro-7-methoxy-1-methyl-[1,2,4]triazolo[4,3-a]quinoxaline-4-ylamino)-butyl]-2-thiophene-2-yl-acetamide], the IC50 in assay [1] (setting [6]) was ≤ 200 nM; in assay [1] (setting [3]) it was 100 nM; in assay [2] (setting [4]), ≤ 50 nM.
Take `COc1cc2c(cc1C)nc(NCCCCNC(=O)OCC(C)C)c1nnc(C)n12` [Example 150, [4-(8-methoxy-1,7-dimethyl-[1,2,4]triazolo[4,3-a]quinoxaline-4-ylamino)-butyl]-carbamic acid isobutylester]: the IC50 in assay [1] (setting [3]) was 460 nM; in assay [2] (setting [4]), ≤ 50 nM; in assay [2] (setting [5]) it was 48 nM.
For `CCC(C)C(=O)NCCCCNc1nc2cc(OC)ccc2n2c(C)nnc12` (stereo not drawn) [Example 291, N-[4-(7-methoxy-1-methyl-[1,2,4]triazolo[4,3-a]quinoxaline-4-ylamino)-butyl]-2-methyl-butyramide], the concentration for half-maximal inhibition (IC50) in assay [1] (setting [3]) was 290 nM; in assay [2] (setting [5]) it was 97 nM.
On to `CCc1nnc2c(NCCCCNC(=O)OCC(C)C)nc3cc(OC)c(OC)cc3n12` [Example 598, [4-(1-ethyl-7,8-dimethoxy-[1,2,4]triazolo[4,3-a]quinoxaline-4-ylamino)-butyl]-carbamic acid isobutylester], for which the IC50 in assay [1] (setting [3]) was 290 nM; in assay [2] (setting [4]), ≤ 50 nM; in assay [2] (setting [5]), 18 nM.
Turning to `C/C=C/C(=O)NCCCCNc1nc2cc(OC)ccc2n2c(C)nnc12` [Example 283, butene-2-oic acid-[4-(7-methoxy-1-methyl-[1,2,4]triazolo[4,3-a]quinoxaline-4-ylamino)-butyl]-amide], the IC50 was determined as 176 nM in assay [1] (setting [3]) and 51 nM in assay [2] (setting [5]).
For the compound `Cc1nnc2c(NCCCCNC(=O)CC(C)C)nc3ccc(NCCCC#N)cc3n12` [Example 553, N-{4-[8-(3-cyano-propylamino)-1-methyl-[1,2,4]triazolo[4,3-a]quinoxaline-4-ylamino]-butyl}-3-methyl-butyramide], the half-inhibitory concentration (IC50) is ≤ 200 nM in assay [1] (setting [6]), 174 nM in assay [1] (setting [3]), ≤ 50 nM in assay [2] (setting [4]) and 24 nM in assay [2] (setting [5]).
With `CCc1nnc2c(NCCCCNC(=O)OCC(C)C)nc3cc(OC)ccc3n12` [Example 624, [4-(7-methoxy-1-ethyl-[l,2,4]triazolo[4,3-a]quinoxaline-4-ylamino)-butyl]-carbamic acid isobutylester], the IC50 is 410 nM in assay [1] (setting [3]), ≤ 50 nM in assay [2] (setting [4]) and 16 nM in assay [2] (setting [5]).
`CCCn1c(-c2ccc3c(c2)nc(NCCCCNC(=O)CC(C)C)c2nnc(C)n23)nc2ccccc21` [Example 240, 3-methyl-N-{4-[1-methyl-7-(1-propyl-1H-benzoimidazole-2-yl)-[1,2,4]triazolo[4,3-a]quinoxaline-4-ylamino]-butyl}-butyramide]: the concentration for half-maximal inhibition (IC50) is ≤ 200 nM in assay [1] (setting [6]), 158 nM in assay [1] (setting [3]), ≤ 10 nM in assay [2] (setting [4]) and 0.9 nM in assay [2] (setting [5]).
As for `COc1ccc2c(c1)nc(NCCCCNC(=O)[C@H](C(C)C)N(C)C)c1nnc(C)n12` [Example 313, 2-(S)-dimethylamino-N-[4-(7-methoxy-1-methyl-[1,2,4]triazolo[4,3-a]quinoxaline-4-ylamino)-butyl]-3-methyl-butyramide], the values for the half-maximal inhibitory concentration (IC50) in assay [1] (setting [3]), in assay [2] (setting [4]) and in assay [2] (setting [5]) were 570 nM, ≤ 50 nM and 33 nM, respectively.
Taken in the same sequence, the figures for `COCCOc1ccc2c(c1)nc(NCCCCNC(=O)Cc1ccco1)c1nnc(C)n12` [Example 407, 2-furan-2-yl-N-{4-[7-(2-methoxy-ethoxy)-1-methyl-[1,2,4]triazolo[4,3-a]quinoxaline-4-ylamino]-butyl}-acetamide] were 180 nM, ≤ 10 nM and 7 nM.
In the case of `CCC(C)CNC(=O)CCCCNc1nc2cc(OC)ccc2n2c(C)nnc12` (stereo not drawn) [Example 656, 5-(7-methoxy-1-methyl-[1,2,4]triazolo[4,3-a]quinoxaline-4-ylamino)-pentanoic acid-(2-methyl-butyl)-amide], the IC50 in assay [1] (setting [6]) was ≤ 200 nM; in assay [1] (setting [3]), 150 nM; in assay [2] (setting [4]), ≤ 50 nM; in assay [2] (setting [5]) it was 12 nM.
As for `COCCOc1cc2nc(NCCCCNC(=O)NC(C)(C)C)c3nnc(C)n3c2cc1OCCOC` [Example 169, 1-{4-[7,8-bis-(2-methoxy-ethoxy)-1-methyl-[1,2,4]triazolo[4,3-a]quinoxaline-4-ylamino]-butyl}-3-tert-butyl-urea], the IC50 in assay [1] (setting [3]) is 860 nM; in assay [2] (setting [4]) it was ≤ 50 nM; in assay [2] (setting [5]), 41 nM.
With `CSc1ccc2c(c1)nc(NCCCCNC(=O)[C@@H](O)C(C)C)c1nnc(C)n12` [Example 358, 2-(S)-hydroxy-3-methyl-N-[4-(1-methyl-7-methylsulfanyl-[1,2,4]triazolo[4,3-a]quinoxaline-4-ylamino)-butyl]-butyramide], the IC50 is 160 nM in assay [1] (setting [3]), ≤ 10 nM in assay [2] (setting [4]) and 7 nM in assay [2] (setting [5]).
On to `CCOC(=O)NCCCCNc1nc2cc(OC)c(OC)cc2n2c(C)nnc12` [Example 61, [4-(7,8-dimethoxy-1-methyl-[1,2,4]triazolo[4,3-a]quinoxaline-4-ylamino)-butyl]-carbamic acid ethylester], for which the IC50 in assay [1] (setting [3]) was 380 nM; in assay [2] (setting [5]) it was 56 nM.
Turning to `Cc1nnc2c(NCCCCNC(=O)[C@@H](NC(=O)OCC(C)C)C(C)C)nc3cc(N4C[C@@H](C)O[C@@H](C)C4)ccc3n12` [Example 515, (S)-(1-{4-[7-(2,6-dimethyl-morpholine-4-yl)-1-methyl-[1,2,4]triazolo[4,3-a]quinoxaline-4-ylamino]-butylcarbamoyl}-2-methyl-propyl)-carbamic acid isobutylester], the figures for the concentration for half-maximal inhibition (IC50) in assay [1] (setting [6]), in assay [1] (setting [3]) and in assay [2] (setting [4]) were ≤ 200 nM, 90 nM and ≤ 50 nM, respectively.
In the case of `COc1c(C)ccc2c1nc(NCCCCNC(=O)c1ccccc1)c1nnc(C)n12` [Example 138, N-[4-(6-methoxy-1,7-dimethyl-[1,2,4]triazolo[4,3-a]quinoxaline-4-ylamino)-butyl]-benzamide], the 50% inhibitory concentration (IC50) came out at 860 nM in assay [1] (setting [3]) and 51 nM in assay [2] (setting [5]).
With `COc1ccc2c(c1)nc(NCCCCNC(=O)NC1CCCCC1)c1nnc(C)n12` [Example 335, 1-cyclohexyl-3-[4-(7-methoxy-1-methyl-[1,2,4]triazolo[4,3-a]quinoxaline-4-ylamino)-butyl]-urea], the IC50 in assay [1] (setting [6]) is ≤ 200 nM; in assay [1] (setting [3]), 40 nM; in assay [2] (setting [4]) it was ≤ 50 nM; in assay [2] (setting [5]) it was 16 nM.
Regarding `Cc1nnc2c(NCCCCNC(=O)CC(C)C)nc3cc(C(=O)Nc4ccccc4N)ccc3n12` [Example 215, 1-methyl-4-[4-(3-methyl-butyrylamino)-butylamino]-[1,2,4]triazolo[4,3-a]quinoxaline-7-carboxylic acid-(2-amino-phenyl)-amide], the IC50 was 276 nM in assay [1] (setting [3]), ≤ 50 nM in assay [2] (setting [4]) and 22 nM in assay [2] (setting [5]).
Turning to `COc1c(C)ccc2c1nc(NCCCCNC(=O)c1ccccc1Cl)c1nnc(C)n12` [Example 140, 2-chloro-N-[4-(6-methoxy-1,7-dimethyl-[1,2,4]triazolo[4,3-a]quinoxaline-4-ylamino)-butyl]-benzamide], the values for the IC50 in assay [1] (setting [3]) and in assay [2] (setting [5]) were 680 nM and 52 nM, respectively.
Consider `Cc1nnc2c(NCCCCNC(=O)OC(C)(C)C)nc3cc(-c4nc5ccccc5n4C)ccc3n12` [Example 220, {4-[1-methyl-7-(1-methyl-1H-benzoimidazole-2-yl)-[1,2,4]triazolo[4,3-a]quinoxaline-4-ylamino]-butyl}-carbamic acid-tert-butylester], for which the results for the 50% inhibitory concentration (IC50) in assay [1] (setting [3]) and in assay [2] (setting [4]) were 350 nM and ≤ 10 nM, respectively.
For the compound `COc1cc2nc(NCCCCNC(=O)CC(C)C)c3nnc(C)n3c2cc1C(F)(F)F` [Example 476, N-[4-(7-methoxy-1-methyl-8-trifluoromethyl-[1,2,4]triazolo[4,3-a]quinoxaline-4-ylamino)-butyl]-3-methyl-butyramide], the concentration for half-maximal inhibition (IC50) was 480 nM in assay [1] (setting [3]), ≤ 50 nM in assay [2] (setting [4]) and 34 nM in assay [2] (setting [5]).

These data come from patent publication US11028090B2 (Dong Wha Pharm. Co., Ltd., priority 2017, dated 2021).
